Source: US20230159445A1, “STAT INHIBITORY COMPOUNDS AND COMPOSITIONS” (JANPIX LIMITED, priority 2020, published 2023)

test system: MV4-11 cells; test: MV4-11 Cell Cytotoxicity Assay (CellTiter-Blue, 72 h); format: cell-based, human; conditions: Homo sapiens, MV4-11; MV-4-11 cells
Procedure: In some embodiments, the potency of the STAT5 inhibitors are evaluated by an in vitro assay such as MV4-11 Cell Cytotoxicity Assay. […] 10,000 cells were plated per well in 96-well flat-bottom sterile culture plates with low-evaporation lids. After 24 h, inhibitors and a vehicle control (0.5% DMSO) were added and the cells were incubated for 72 h at 37° C. in 5% CO2. Inhibitors were examined in triplicate at a maximal concentration of 50 μM, followed by 1:2 dilutions in subsequent wells (25, 12.5, 6.25, 3.125, 1.5625, 0.78125, 0.390625, 0.195313 and 0.097656 μM). After 72 h, the wells were treated with CellTiter-Blue® (20 μL/well), and the plates were incubated using standard cell culture conditions for 1 hour. Fluorescence was measured at 560/590 nm.

Q: Which IC50 does the source give for `COc1cc(CN(CC(=O)N(Cc2cc(C3CC3)cc(C(C)(C)C)c2)c2ccc(C(=O)O)c(O)c2)S(=O)(=O)c2c(F)c(F)c(F)c(F)c2F)ccc1F` [Compound 1028, 4-(N-(3-(tert-butyl)-5-cyclopropylbenzyl)-2-(N-(4-fluoro-3-methoxybenzyl)-(2,3,4,5,6-pentafluoro-phenyl)sulfonamido)acetamido)-2-hydroxybenzoic acid] here?
A: 1 to 3.16 µM

Q: Which IC50 does the source give for `CC(C)(C)c1cc(CN(C(=O)CN(Cc2ccc(Cl)cc2)S(=O)(=O)c2c(F)c(F)c(F)c(F)c2F)c2ccc(O)c(O)c2)cc(C2CC2)c1` [Compound 1029, N-(3-(tert-butyl)-5-cyclopropylbenzyl)-2-(N-(4-chlorobenzyl)-(2,3,4,5,6-pentafluorophenyl)sulfonamido)-N-(3,4-dihydroxyphenyl) acetamide] here?
A: 3.16 to 100 µM

Q: `CC(C)(C)c1cc(CN(C(=O)CN(Cc2ccc(Cl)cc2)S(=O)(=O)c2c(F)c(F)c(F)c(F)c2F)c2cc(O)cc(O)c2)cc(C2CC2)c1` [Compound 1030, N-(3-(tert-butyl)-5-cyclopropylbenzyl)-2-(N-(4-chlorobenzyl)-(2,3,4,5,6-pentafluorophenyl)sulfonamido)-N-(3,5-dihydroxyphenyl) acetamide] was tested. Which IC50 did it give?
A: 3.16 to 100 µM

Q: For `CC(C)(C)c1cc(CN(C(=O)CN(Cc2ccc(Cl)cc2)S(=O)(=O)c2c(F)c(F)c(F)c(F)c2F)c2ccc(C(=O)NO)cc2)cc(C2CC2)c1` [Compound 1032, 4-(N-(3-(tert-butyl)-5-cyclopropylbenzyl)-2-(N-(4-chlorobenzyl)-(2,3,4,5,6-pentafluorophenyl)sulfon-amido)acetamido)-N-hydroxybenzamide], which IC50 is on record?
A: 3.16 to 100 µM

Q: For `CC(C)(C)c1cc(CN(C(=O)CN(Cc2cccc(O)c2)S(=O)(=O)c2c(F)c(F)c(F)c(F)c2F)c2ccc(C(=O)O)c(O)c2)cc(C2CC2)c1` [Compound 1035, 4-(N-(3-(tert-butyl)-5-cyclopropylbenzyl)-2-(N-(3-hydroxybenzyl)-(2,3,4,5,6-pentafluoro-phenyl)sulfonamido)acetamido)-2-hydroxybenzoic acid], which IC50 is on record?
A: 3.16 to 100 µM

Q: Which IC50 does the source give for `CC(C)(C)c1cc(CN(C(=O)CN(Cc2ccccc2O)S(=O)(=O)c2c(F)c(F)c(F)c(F)c2F)c2ccc(C(=O)O)c(O)c2)cc(C2CC2)c1` [Compound 1036, 4-(N-(3-(tert-butyl)-5-cyclopropylbenzyl)-2-(N-(2-hydroxybenzyl)-(2,3,4,5,6-pentafluoro-phenyl)sulfonamido)acetamido)-2-hydroxybenzoic acid] here?
A: 1 to 3.16 µM

Q: `COc1cccc(CN(CC(=O)N(Cc2cc(C3CC3)cc(C(C)(C)C)c2)c2ccc(C(=O)O)c(O)c2)S(=O)(=O)c2c(F)c(F)c(F)c(F)c2F)c1` [Compound 1038, 4-(N-(3-(tert-butyl)-5-cyclopropylbenzyl)-2-(N-(3-methoxybenzyl)-(2,3,4,5,6-pentafluoro-phenyl)sulfonamido)acetamido)-2-hydroxybenzoic acid] was tested. Which IC50 did it give?
A: 3.16 to 100 µM

Q: With `COC(=O)C(C)(C)c1ccc(N(Cc2cc(C3CC3)cc(C(C)(C)C)c2)C(=O)CN(Cc2ccc(Cl)cc2)S(=O)(=O)c2c(F)c(F)c(F)c(F)c2F)cc1` [Compound 1042, methyl 2-(4-(N-(3-(tert-butyl)-5-cyclopropylbenzyl)-2-(N-(4-chlorobenzyl)-(2,3,4,5,6-pentafluorophenyl)sulfon-amido)acetamido)phenyl)-2-methylpropanoate] as the compound, how does the IC50 read?
A: 3.16 to 100 µM

Q: Which IC50 does the source give for `COC(=O)c1ccc(N(Cc2cc(C3CC3)cc(C(C)(C)C)c2)C(=O)CN(Cc2ccc(Cl)cc2)S(=O)(=O)c2c(F)c(F)c(F)c(F)c2F)cc1O` [Compound 1051, methyl 4-(N-(3-(tert-butyl)-5-cyclopropylbenzyl)-2-(N-(4-chlorobenzyl)-(2,3,4,5,6-pentafluorophenyl)sulfon-amido)acetamido)-2-hydroxybenzoate] here?
A: 3.16 to 100 µM

Q: `CC(C)(C)c1cc(CN(C(=O)CN(Cc2ccccc2F)S(=O)(=O)c2c(F)c(F)c(F)c(F)c2F)c2ccc(C(=O)O)cc2NS(C)(=O)=O)cc(C2CC2)c1` [Compound 1059, 4-(N-(3-(tert-butyl)-5-cyclopropylbenzyl)-2-(N-(2-fluorobenzyl)-(2,3,4,5,6-pentafluoro-phenyl)sulfonamido)acetamido)-3-(methylsulfonamido) benzoic acid] was tested. Which IC50 did it give?
A: 3.16 to 100 µM

Q: For `CC(C)Cc1cc(CN(C(=O)CN(Cc2ccccc2F)S(=O)(=O)c2c(F)c(F)c(F)c(F)c2F)c2ccc(C(=O)O)c(O)c2)cc(C2CC2)c1` [Compound 1067, 4-(N-(3-cyclopropyl-5-isobutylbenzyl)-2-(N-(2-fluorobenzyl)-(2,3,4,5,6-pentafluoro-phenyl)sulfonamido)acetamido)-2-hydroxybenzoic acid], which IC50 is on record?
A: 3.16 to 100 µM

Q: For `CN(C)c1cc(C(=O)O)cc(F)c1N(Cc1cc(C2CC2)cc(C(C)(C)C)c1)C(=O)CN(Cc1ccccc1F)S(=O)(=O)c1c(F)c(F)c(F)c(F)c1F` [Compound 1069, 4-(N-(3-(tert-butyl)-5-cyclopropylbenzyl)-2-(N-(2-fluorobenzyl)-(2,3,4,5,6-pentafluoro-phenyl)sulfonamido)acetamido)-3-(dimethylamino)-5-fluorobenzoic acid], which IC50 is on record?
A: 0.316 to 1 µM

Q: How did the IC50 turn out when `CC(C)(C)c1cc(CN(C(=O)CN(Cc2ccccc2F)S(=O)(=O)c2c(F)c(F)c(F)c(F)c2F)c2ccc(C(=O)O)cc2NCCCCl)cc(C2CC2)c1` [Compound 1074, 4-(N-(3-(tert-butyl)-5-cyclopropylbenzyl)-2-(N-(2-fluorobenzyl)-(2,3,4,5,6-pentafluoro-phenyl)sulfonamido)acetamido)-3-((3-chloropropyl)amino) benzoic acid] was run?
A: 1 to 3.16 µM

Q: Which IC50 does the source give for `COc1cc(C(=O)O)ccc1N(Cc1cc(C2CC2)cc(C(C)(C)C)c1)C(=O)CN(Cc1ccc(F)nc1Cl)S(=O)(=O)c1c(F)c(F)c(F)c(F)c1F` [Compound 1096, 4-(N-(3-(tert-butyl)-5-cyclopropylbenzyl)-2-(N-((2-chloro-6-fluoropyridin-3-yl)methyl)-(2,3,4,5,6-pentafluorophenyl)sulfon-amido)acetamido)-3-methoxybenzoic acid] here?
A: 1e-05 to 0.316 µM

Q: `CN(C)CCOc1cc(C(=O)O)ccc1N(Cc1cc(C2CC2)cc(C(C)(C)C)c1)C(=O)CN(Cc1ccccc1F)S(=O)(=O)c1c(F)c(F)c(F)c(F)c1F` [Compound 1101, 4-(N-(3-(tert-butyl)-5-cyclopropylbenzyl)-2-(N-(2-fluorobenzyl)-(2,3,4,5,6-pentafluoro-phenyl)sulfonamido)taceamido)-3-(2-(dimethylamino)ethoxy) benzoic acid] was tested. Which IC50 did it give?
A: 3.16 to 100 µM

Q: For `CN(C)c1cc(C(=O)O)ccc1N(Cc1cc(C2CC2)cc(C(C)(C)C)c1)C(=O)CN(Cc1c(F)c(F)c(F)c(F)c1F)S(=O)(=O)c1c(F)c(F)c(F)c(F)c1F` [Compound 1106, 4-(N-(3-(tert-butyl)-5-cyclopropylbenzyl)-2-(N-((perfluorophenyl)methyl)-(2,3,4,5,6-pentafluorophenyl)sulfonamido)acetamido)-3-(dimethylamino)benzoic acid], which IC50 is on record?
A: 1e-05 to 0.316 µM

Q: Which IC50 does the source give for `CN(C)c1cc(C(=O)O)c(F)cc1N(Cc1cc(C2CC2)cc(C(C)(C)C)c1)C(=O)CN(Cc1c(F)c(F)c(F)c(F)c1F)S(=O)(=O)c1c(F)c(F)c(F)c(F)c1F` [Compound 1107, 4-(N-(3-(tert-butyl)-5-cyclopropylbenzyl)-2-(N-((perfluorophenyl)methyl)-(2,3,4,5,6-pentafluoro-phenyl)sulfonamido)acetamido)-5-(dimethylamino)-2-fluorobenzoic acid] here?
A: 1e-05 to 0.316 µM

Q: For `CC(C)(C)c1cc(CN(C(=O)CN(Cc2ccccc2C(F)(F)F)S(=O)(=O)c2c(F)c(F)c(F)c(F)c2F)c2ccc(C(=O)O)cc2C2CC2)cc(C2CC2)c1` [Compound 1112, 4-(N-(3-(tert-butyl)-5-cyclopropylbenzyl)-2-(N-(2-(trifluoromethyl)benzyl)-(2,3,4,5,6-pentafluoro-phenyl)sulfonamido)acetamido)-3-cyclopropylbenzoic acid], which IC50 is on record?
A: 1e-05 to 0.316 µM

Q: Which IC50 does the source give for `CN(C)c1cc(C(=O)O)c(F)cc1N(Cc1cc(C2CC2)cc(C(C)(C)C)c1)C(=O)CN(Cc1ccccc1C(F)(F)F)S(=O)(=O)c1c(F)c(F)c(F)c(F)c1F` [Compound 1113, 4-(N-(3-(tert-butyl)-5-cyclopropylbenzyl)-2-(N-(2-(trifluoromethyl)benzyl)-(2,3,4,5,6-pentafluoro-phenyl)sulfonamido)acetamido)-5-(dimethylamino)-2-fluorobenzoic acid] here?
A: 0.316 to 1 µM

Q: Which IC50 does the source give for `COc1cc(C(N)=O)ccc1N(Cc1cc(C2CC2)cc(C(C)(C)C)c1)C(=O)CN(Cc1ccccc1F)S(=O)(=O)c1c(F)c(F)c(F)c(F)c1F` [Compound 1114, 4-(N-(3-(tert-butyl)-5-cyclopropylbenzyl)-2-(N-(2-fluorobenzyl)-(2,3,4,5,6-pentafluoro-phenyl)sulfonamido)acetamido)-3-methoxybenzamide] here?
A: 0.316 to 1 µM

Q: Which IC50 does the source give for `CN(C)c1ccc(C(=O)O)cc1N(Cc1cc(C2CC2)cc(C(C)(C)C)c1)C(=O)CN(Cc1ccccc1F)S(=O)(=O)c1c(F)c(F)c(F)c(F)c1F` [Compound 1120, 3-(N-(3-(tert-butyl)-5-cyclopropylbenzyl)-2-(N-(2-fluorobenzyl)-(2,3,4,5,6-pentafluoro-phenyl)sulfonamido)acetamido)-4-(dimethylamino) benzoic acid] here?
A: 0.316 to 1 µM

Q: `CN(C)c1cc(C(=O)O)ccc1N(Cc1cc(C2CC2)cc(C(C)(C)C)c1)C(=O)CN(Cc1c(F)cc(F)cc1F)S(=O)(=O)c1c(F)c(F)c(F)c(F)c1F` [Compound 1125, 4-(N-(3-(tert-butyl)-5 - cyclopropylbenzyl)-2-(N-(2,4,6-trifluorobenzyl)-(2,3,4,5,6-pentafluoro-phenyl)sulfonamido)acetamido)-3-(dimethylamino) benzoic acid] was tested. Which IC50 did it give?
A: 0.316 to 1 µM
